Measurements as given in patent US10730872B2, “Pesticidally active heterocyclic derivatives with sulphur containing sustitutents” (SYNGENTA PARTICIPATIONS AG, priority 2015, dated 2020).

What was measured:
Format in all cases: in vivo
[1] = tested on: Bemisia tabaci; assay: Bemisia tabaci (Cotton White Fly): Feeding/Contact Activity; conditions: foliar, 144 h, application rate of 200 ppm, sprayed cotton leaf discs, adult white flies, 6 days after incubation
Procedure: Cotton leaf discs were placed on agar in 24-well microtiter plates and sprayed with aqueous test solutions prepared from 10,000 ppm DMSO stock solutions. After drying the leaf discs were infested with adult white flies. The samples were checked for mortality 6 days after incubation.

[2] = tested on: Diabrotica balteata; assay: Diabrotica balteata (Corn Root Worm); conditions: 96 h, application rate of 200 ppm, sprayed maize sprouts, L2 larvae, 4 days after infestation, read-out: effect in at least one of the two categories (mortality or growth inhibition)
Procedure: Maize sprouts placed onto an agar layer in 24-well microtiter plates were treated with aqueous test solutions prepared from 10,000 ppm DMSO stock solutions by spraying. After drying, the plates were infested with L2 larvae (6 to 10 per well). The samples were assessed for mortality and growth inhibition in comparison to untreated samples 4 days after infestation.

[3] = tested on: Euschistus heros; assay: Euschistus heros (Neotropical Brown Stink Bug); conditions: 120 h, application rate of 200 ppm, sprayed soybean leaves, N2 nymphs, 5 days after infestation, read-out: effect in at least one of the two categories (mortality or growth inhibition)
Procedure: Soybean leaves on agar in 24-well microtiter plates were sprayed with aqueous test solutions prepared from 10,000 ppm DMSO stock solutions. After drying the leaves were infested with N2 nymphs. The samples were assessed for mortality and growth inhibition in comparison to untreated samples 5 days after infestation.

[4] = tested on: Myzus persicae; assay: Myzus persicae (Green Peach Aphid): Feeding/Contact Activity; conditions: foliar, 144 h, application rate of 200 ppm, sprayed sunflower leaf discs, aphid population of mixed ages, 6 days after infestation
Procedure: Sunflower leaf discs were placed onto agar in a 24-well microtiter plate and sprayed with aqueous test solutions prepared from 10,000 ppm DMSO stock solutions. After drying, the leaf discs were infested with an aphid population of mixed ages. The samples were assessed for mortality 6 days after infestation.

[5] = tested on: Plutella xylostella; assay: Plutella xylostella (Diamond Back Moth); conditions: 120 h, application rate of 200 ppm, artificial diet, L2 larvae, 5 days after infestation, read-out: effect in at least one of the two categories (mortality or growth inhibition)
Procedure: 24-well microtiter plates with artificial diet were treated with aqueous test solutions prepared from 10,000 ppm DMSO stock solutions by pipetting. After drying, the plates were infested with L2 larvae (10 to 15 per well). The samples were assessed for mortality and growth inhibition in comparison to untreated samples 5 days after infestation.

[6] = tested on: Spodoptera littoralis; assay: Spodoptera littoralis (Egyptian Cotton Leaf Worm), sprayed cotton leaf discs; conditions: foliar, 72 h, application rate of 200 ppm, L1 larvae, 3 days after infestation
Procedure: Cotton leaf discs were placed onto agar in 24-well microtiter plates and sprayed with aqueous test solutions prepared from 10,000 ppm DMSO stock solutions. After drying the leaf discs were infested with five L1 larvae. The samples were assessed for mortality, anti-feeding effect, and growth inhibition in comparison to untreated samples 3 days after infestation. Control of Spodoptera littoralis by a test sample is given when at least one of the categories mortality, anti-feedant effect, and growth inhibition is higher than the untreated sample.

[7] = tested on: Spodoptera littoralis; assay: Spodoptera littoralis (Egyptian Cotton Leaf Worm), uptake by lettuce roots from agar; conditions: 144 h, test rate of 12.5 ppm, mixed with agar, absorbed by lettuce roots, Spodoptera eggs, 6 days after infestation, read-out: effect in at least one of the three categories (mortality, anti-feeding, or growth inhibition)
Excerpt: Test compounds were applied by pipette from 10,000 ppm DMSO stock solutions into 24-well plates and mixed with agar. Lettuce seeds were placed onto the agar and the multi well plate was closed by another plate which contained also agar. After 7 days the compound was absorbed by the roots and the lettuce grew into the lid plate. The lettuce leaves were then cut off into the lid plate. Spodoptera eggs were pipetted through a plastic stencil onto a humid gel blotting paper and the lid plate was closed with it. The samples were assessed for mortality, anti-feedant effect and growth inhibition in comparison to untreated samples 6 days after infestation.

[8] = tested on: Aedes aegypti; assay: Aedes Aegypti (Yellow Fever Mosquito); conditions: 200 ppm in ethanol, dry deposit in 12 well plates, adult females, after 48 h and/or 24 h
Procedure: Test solutions, at an application rate of 200 ppm in ethanol, were applied to 12 well tissue culture plates. Once the deposits were dry, five, two to five day old adult female Aedes aegypti were added to each well, and sustained with a 10% sucrose solution in a cotton wool plug. Assessment of knockdown was made one hour after introduction, and mortality was assessed at 24 and 48 hours after introduction.

[9] = tested on: Tetranychus urticae; assay: Tetranychus urticae (Two-Spotted Spider Mite): Feeding/Contact Activity; conditions: foliar, 192 h, application rate of 200 ppm, sprayed bean leaf discs, mixed population (mobile stages), 8 days after infestation
Procedure: Bean leaf discs on agar in 24-well microtiter plates were sprayed with aqueous test solutions prepared from 10,000 ppm DMSO stock solutions. After drying the leaf discs were infested with a mite population of mixed ages. The samples were assessed for mortality on mixed population (mobile stages) 8 days after infestation.

[10] = tested on: Myzus persicae; assay: Myzus persicae (Green Peach Aphid). Systemic Activity; conditions: 144 h, test rate of 24 ppm, roots of infested pea seedlings in test solution, 6 days
Procedure: Roots of pea seedlings infested with an aphid population of mixed ages were placed directly into aqueous test solutions prepared from 10,000 DMSO stock solutions. The samples were assessed for mortality 6 days after placing seedlings into test solutions.

CCn1c(C(F)(F)F)cc2nc(-c3nc(N)c(Br)cc3S(=O)(=O)CC)n(C)c2c1=O [Compound A39, 2-(6-amino-5-bromo-3-ethylsulfonyl-2-pyridyl)-5-ethyl-3-methyl-6-(trifluoromethyl)imidazo[4,5-c]pyridin-4-one]
≥ 80%: mortality at 200 ppm [1] | effect mortality or growth inhibition at 200 ppm [2] | percent effect (mortality or growth inhibition) at 200 ppm [3] | mortality at 200 ppm [4] | percent effect (mortality or growth inhibition) at 200 ppm [5] | percent control (mortality, anti-feeding effect or growth inhibition) at 200 ppm [6] | percent effect (mortality, anti-feeding or growth inhibition) at 12.5 ppm [7] | pest or weed control at 200 ppm [8]

CCn1c(C(F)(F)F)cc2nc(-c3nc(N(CC(F)(F)F)C(=O)C4CC4)ccc3S(=O)(=O)CC)n(C)c2c1=O [Compound A32, N-[6-[5-ethyl-3-methyl-4-oxo-6-(trifluoromethyl)imidazo[4,5-c]pyridin-2-yl]-5-ethylsulfonyl-2-pyridyl]-N-(2,2,2-trifluoroethyl)cyclopropanecarboxamide]
≥ 80%: effect mortality or growth inhibition at 200 ppm [2] | percent effect (mortality or growth inhibition) at 200 ppm [5] | percent control (mortality, anti-feeding effect or growth inhibition) at 200 ppm [6] | mortality at 200 ppm [9]

CCS(=O)(=O)c1ccc(N)nc1-c1nc2cc(C(F)(F)F)n(C3CC3)c(=O)c2n1C [Compound A42, 2-(6-amino-3-ethylsulfonyl-2-pyridyl)-5-cyclopropyl-3-methyl-6-(trifluoromethyl)imidazo[4,5-c]pyridin-4-one]
≥ 80%: mortality at 200 ppm [1] | effect mortality or growth inhibition at 200 ppm [2] | percent effect (mortality or growth inhibition) at 200 ppm [3] | mortality at 200 ppm [4] | mortality at 24 ppm [10] | percent effect (mortality or growth inhibition) at 200 ppm [5] | percent control (mortality, anti-feeding effect or growth inhibition) at 200 ppm [6] | percent effect (mortality, anti-feeding or growth inhibition) at 12.5 ppm [7] | mortality at 200 ppm [9]

CCn1c(C(F)(F)F)cc2nc(-c3nc(N(C)C4CC4)ccc3S(=O)(=O)CC)n(C)c2c1=O [Compound A12, 2-[6-[cyclopropyl(methyl)amino]-3-ethylsulfonyl-2-pyridyl]-5-ethyl-3-methyl-6-(trifluoromethyl)imidazo[4,5-c]pyridin-4-one]
≥ 80%: mortality at 200 ppm [1] | effect mortality or growth inhibition at 200 ppm [2] | percent effect (mortality or growth inhibition) at 200 ppm [3] | mortality at 200 ppm [4] | percent effect (mortality or growth inhibition) at 200 ppm [5] | percent control (mortality, anti-feeding effect or growth inhibition) at 200 ppm [6] | pest or weed control at 200 ppm [8]

CCn1c(C(F)(F)F)cc2nc(-c3nc(C(=O)O)ccc3S(=O)(=O)CC)n(C)c2c1=O [Compound A4, 6-[5-ethyl-3-methyl-4-oxo-6-(trifluoromethyl)imidazo[4,5-c]pyridin-2-yl]-5-ethylsulfonyl-pyridine-2-carboxylic acid]
≥ 80%: mortality at 200 ppm [9]

CCn1c(C(F)(F)F)cc2nc(-c3nc(NCC(F)(F)F)ccc3S(=O)(=O)CC)n(C)c2c1=O [Compound A34, 5-ethyl-2-[3-ethylsulfonyl-6-(2,2,2-trifluoroethylamino)-2-pyridyl]-3-methyl-6-(trifluoromethyl)imidazo[4,5-c]pyridin-4-one]
≥ 80%: effect mortality or growth inhibition at 200 ppm [2] | percent effect (mortality or growth inhibition) at 200 ppm [5] | percent control (mortality, anti-feeding effect or growth inhibition) at 200 ppm [6] | mortality at 200 ppm [9]

CCn1c(C(F)(F)F)cc2nc(-c3ncc(NC(=O)OC(C)(C)C)cc3S(=O)(=O)CC)n(C)c2c1=O [Compound A64, tert-butyl N-[6-[5-ethyl-3-methyl-4-oxo-6-(trifluoromethyl)imidazo[4,5-c]pyridin-2-yl]-5-ethylsulfonyl-3-pyridyl]carbamate]
≥ 80%: mortality at 200 ppm [1] | percent effect (mortality or growth inhibition) at 200 ppm [3] | percent effect (mortality or growth inhibition) at 200 ppm [5] | percent control (mortality, anti-feeding effect or growth inhibition) at 200 ppm [6] | mortality at 200 ppm [9]

CCn1c(C(F)(F)F)cc2nc(-c3nc(N)c(C4CC4)cc3S(=O)(=O)CC)n(C)c2c1=O [Compound A71]
≥ 80%: mortality at 200 ppm [1] | effect mortality or growth inhibition at 200 ppm [2] | percent effect (mortality or growth inhibition) at 200 ppm [3] | mortality at 200 ppm [4] | mortality at 24 ppm [10] | percent effect (mortality or growth inhibition) at 200 ppm [5] | percent control (mortality, anti-feeding effect or growth inhibition) at 200 ppm [6] | mortality at 200 ppm [9]

CCn1c(C(F)(F)F)cc2nc(-c3ncc(N(C)S(C)(=O)=O)cc3S(=O)(=O)CC)n(C)c2c1=O [Compound A13, N-[6-[5-ethyl-3-methyl-4-oxo-6-(trifluoromethyl)imidazo[4,5-c]pyridin-2-yl]-5-ethylsulfonyl-3-pyridyl]-N-methyl-methanesulfonamide]
≥ 80%: percent effect (mortality or growth inhibition) at 200 ppm [3] | mortality at 200 ppm [4] | percent effect (mortality or growth inhibition) at 200 ppm [5] | percent control (mortality, anti-feeding effect or growth inhibition) at 200 ppm [6] | mortality at 200 ppm [9]

CCn1c(C(F)(F)F)cc2nc(-c3nc(NC(=O)OC(C)(C)C)ccc3S(=O)(=O)CC)n(C)c2c1=O [Compound A66, tert-butyl N-[6-[5-ethyl-3-methyl-4-oxo-6-(trifluoromethyl)imidazo[4,5-c]pyridin-2-yl]-5-ethylsulfonyl-2-pyridyl]carbamate]
≥ 80%: mortality at 200 ppm [1] | effect mortality or growth inhibition at 200 ppm [2] | percent effect (mortality or growth inhibition) at 200 ppm [5] | percent control (mortality, anti-feeding effect or growth inhibition) at 200 ppm [6] | percent effect (mortality, anti-feeding or growth inhibition) at 12.5 ppm [7] | mortality at 200 ppm [9]

CCn1c(C(F)(F)F)cc2nc(-c3ncc(C(=O)NC4CC4)cc3S(=O)(=O)CC)n(C)c2c1=O [Compound A19, N-cyclopropyl-6-[5-ethyl-3-methyl-4-oxo-6-(trifluoromethyl)imidazo[4,5-c]pyridin-2-yl]-5-ethylsulfonyl-pyridine-3-carboxamide]
≥ 80%: percent effect (mortality or growth inhibition) at 200 ppm [3] | mortality at 24 ppm [10] | percent effect (mortality or growth inhibition) at 200 ppm [5] | mortality at 200 ppm [9]

CCn1c(C(F)(F)F)cc2nc(-c3ncc(NC4(C#N)CC4)cc3S(=O)(=O)CC)n(C)c2c1=O [Compound A24, 1-[[6-[5-ethyl-3-methyl-4-oxo-6-(trifluoromethyl)imidazo[4,5-c]pyridin-2-yl]-5-ethylsulfonyl-3-pyridyl]amino]cyclopropanecarbonitrile]
≥ 80%: effect mortality or growth inhibition at 200 ppm [2] | percent effect (mortality or growth inhibition) at 200 ppm [3] | percent effect (mortality or growth inhibition) at 200 ppm [5] | percent control (mortality, anti-feeding effect or growth inhibition) at 200 ppm [6] | mortality at 200 ppm [9]

CCn1c(C(F)(F)F)cc2nc(-c3ncc(N)cc3S(=O)(=O)CC)n(C)c2c1=O [Compound A5, 2-(5-amino-3-ethylsulfonyl-2-pyridyl)-5-ethyl-3-methyl-6-(trifluoromethyl)imidazo[4,5-c]pyridin-4-one]
≥ 80%: effect mortality or growth inhibition at 200 ppm [2] | mortality at 200 ppm [4] | percent effect (mortality or growth inhibition) at 200 ppm [5] | percent control (mortality, anti-feeding effect or growth inhibition) at 200 ppm [6] | pest or weed control at 200 ppm [8]
